What all share (test): Bliss excess, mean over the matrix (fraction); higher = more synergy
The test system of assay [1] is LCLC-103H (Non-Small Cell Lung Carcinoma). In a few lines: (§1)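 Bliss excess equals the observed combination effect minus the expected value EA + EB − EA·EB, where EA and EB are the effects of each agent alone. Combination Emax is the second-highest inhibition within the matrix. Inhibition was scaled from CellTiter-Glo 2.0 luminescence, with 0 set by vehicle wells and 1 by blank wells, after 72 hours of two-drug dosing of cells plated in 1536-well plates.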

Assay [2] relates to PA-TU-8988T (Pancreatic Carcinoma). In a few lines: as §1
For the next assay, the system named is KALS-1 (Glioblastoma). In a few lines: as §1
Assay [3] deals with SNU-C2B (Colorectal Carcinoma). In a few lines:
as §1

For assay [4], the system named is MDA-MB-415 (Breast Carcinoma). In a few lines:
as §1

The test system of assay [5] is BHT-101 (Thyroid Gland Carcinoma). In short, it runs like this:
as §1

Assay [6] relates to P30-OHK (B-Lymphoblastic Leukemia). In a few lines:
as §1

Assay [7] has as its system C-33-A (Cervical Carcinoma). In short, it runs like this:
as §1

The subject of assay [8] is MOLP-8 (Plasma Cell Myeloma). In a few lines:
as §1

In assay [9] the test system is SKG-IIIa (Cervical Carcinoma). In a few lines: as §1
The subject of assay [10] is SCC-4 (Oral Cavity Carcinoma). In a few lines:
as §1

For a further assay, the system named is SK-N-SH (Neuroblastoma). In short, it runs like this:
as §1

The test system of assay [11] is TUR (Acute Myeloid Leukemia). In a few lines: as §1
Another assay has as its system WM35 (Melanoma). In short, it runs like this:
as §1

Assay [12] concerns HT-1080 (Other Solid Carcinomas). In short, it runs like this:
as §1

The test system of assay [13] is MOLT-13 (T-Lymphoblastic Leukemia). In short, it runs like this: as §1
In assay [14] the test system is COR-L88 (Small Cell Lung Carcinoma). In short, it runs like this:
as §1

Assay [15] deals with NCI-H1963 (Small Cell Lung Carcinoma). In short, it runs like this:
as §1

The subject of the next assay is T47D (Breast Carcinoma). In short, it runs like this:
as §1

For assay [16], the system named is CPC-N (Small Cell Lung Carcinoma). In short, it runs like this: as §1

With `CN(CCO)CC[C@H](CSc1ccccc1)Nc1ccc(S(=O)(=O)NC(=O)c2ccc(N3CCC([C@@H](O)c4ccccc4-c4ccc(Cl)cc4)CC3)cc2)cc1S(=O)(=O)C(F)(F)F` [AZD4320] + Cc1cc2ncnn2cc1Nc1ncc2c(n1)n(C1CCOCC1)c(=O)n2C [AZD7648] (first compound max 1 µM, 7x7, partner max 10 µM), the Bliss excess in assay [1] was -0.0303; in assay [2] it was -0.043; in the assay with KALS-1 (Glioblastoma), -0.0096; in assay [3], -0.0126; in [4], -0.0243; in assay [5], -0.0361. For the same molecule, the Bliss excess in assay [6] is 0.0216; in assay [7], -0.0164; in assay [8] it was -0.0125; in assay [9], -0.0614; in assay [10] it was -0.0568; in the assay with SK-N-SH (Neuroblastoma), 0.0283. In addition, the Bliss excess in assay [11] was 0.0088; in the assay on WM35 (Melanoma) it was -0.0122; in [12] it was -0.0757; in assay [13] it was 0.0309; in [14], 0.0052; in assay [15], 0.0483. Moreover, the values for the Bliss excess (in the assay on T47D (Breast Carcinoma); in [16]) were -0.0255 and 0.0364, respectively.
In the case of `CN(CCO)CC[C@H](CSc1ccccc1)Nc1ccc(S(=O)(=O)NC(=O)c2ccc(N3CCC([C@@H](O)c4ccccc4-c4ccc(Cl)cc4)CC3)cc2)cc1S(=O)(=O)C(F)(F)F` [AZD4320] + Cn1cnc2c(F)c(Nc3ccc(Br)cc3Cl)c(C(=O)NOCCO)cc21 [Selumetinib] (first compound max 1 µM, 7x7, partner max 3 µM), the Bliss excess in assay [1] was 0.0112; in [2], 0.0561; in the assay on KALS-1 (Glioblastoma), 0.0924; in assay [3], 0.0528; in assay [4], -0.0181; in [5] it was 0.0147. Also, the Bliss excess in assay [6] turned out to be 0.0291; in assay [7], 0.0597; in [8] it was 0.0614; in [9], 0.0044; in assay [10], 0.054; in the assay with SK-N-SH (Neuroblastoma), 0.0457. In addition, the Bliss excess in [11] is 0.0029; in the assay with WM35 (Melanoma), 0.154; in [12] it was -0.0965; in assay [13], 0.0816; in [14] it was 0.121; in assay [15], 0.0204. The Bliss excess with T47D (Breast Carcinoma) is 0.0231; in assay [16], -0.0185.
As to `COc1nnc2ccc(N3CCC(c4ccc(OCCN5CCN(C)C(=O)[C@H]5C)cc4)CC3)nn12` [AZD5153] + C=CCn1c(=O)c2cnc(Nc3ccc(N4CCN(C)CC4)cc3)nc2n1-c1cccc(C(C)(C)O)n1 [AZD1775] (first compound max 1 µM, partner max 1 µM), the Bliss excess is -0.0128 in assay [1]; -0.0738 in [2]; -0.12 in the assay with KALS-1 (Glioblastoma); -0.035 in assay [3]; -0.0878 in assay [4]; -0.0885 in [5]. For the same molecule, the Bliss excess is 0.0298 in assay [6]; -0.0546 in [7]; -0.0204 in assay [8]; -0.0221 in [9]; -0.0421 in [10]; -0.0602 in the assay with SK-N-SH (Neuroblastoma). Also, the Bliss excess in assay [11] is -0.0252; in the assay with WM35 (Melanoma), -0.0242; in [12] it was -0.0362; in [13], -0.0319; in assay [14] it was -0.0249; in [15], -0.0427. Besides, the values for the Bliss excess (with T47D (Breast Carcinoma); in assay [16]) were -0.0262 and -0.0862, respectively.
With `COc1nnc2ccc(N3CCC(c4ccc(OCCN5CCN(C)C(=O)[C@H]5C)cc4)CC3)nn12` [AZD5153] + CC1(C)CCC(CN2CCN(c3ccc(C(=O)NS(=O)(=O)c4ccc(NCC5CCOCC5)c([N+](=O)[O-])c4)c(Oc4cnc5[nH]ccc5c4)c3)CC2)=C(c2ccc(Cl)cc2)C1 [Venetoclax] (first compound max 1 µM, 7x7, partner max 1 µM), the Bliss excess in assay [1] is -0.0404; in assay [2], -0.0254; with KALS-1 (Glioblastoma), -0.0418; in assay [3] it was -0.0598; in [4], -0.0155; in assay [5] it was -0.0616. Also, the Bliss excess in assay [6] was 0.102; in [7] it was -0.0107; in [8], 0.0065; in assay [9], -0.068; in assay [10], -0.0765; in the assay on SK-N-SH (Neuroblastoma), 0.0011. The Bliss excess in assay [11] was -0.0224; with WM35 (Melanoma), -0.0097; in assay [12] it was -0.0216; in [13] it was 0.11; in assay [14] it was -0.0179; in assay [15], 0.0782. The Bliss excess in the assay on T47D (Breast Carcinoma) was -0.0713; in assay [16] it was 0.0046.
For the molecule `COc1nnc2ccc(N3CCC(c4ccc(OCCN5CCN(C)C(=O)[C@H]5C)cc4)CC3)nn12` [AZD5153] + CCN(CCO)CCCOc1ccc2c(Nc3cc(CC(=O)Nc4cccc(F)c4)[nH]n3)ncnc2c1 [AZD2811] (first compound max 1 µM, 7x7, partner max 1 µM), the Bliss excess in [1] was -0.0104; in assay [2], 0.0086; in the assay on KALS-1 (Glioblastoma) it was -0.0911; in [3], -0.0223; in assay [4], -0.0346; in assay [5] it was -0.0257. For the same molecule, the Bliss excess in [6] was -0.0428; in [7], 0.0198; in [8], 0.0011; in [9], -0.0193; in [10] it was -0.109; with SK-N-SH (Neuroblastoma), -0.0658. Also, the Bliss excess in [11] was 0.131; in the assay with WM35 (Melanoma) it was -0.016; in assay [12] it was 0.0036; in [13] it was -0.008; in [14], -0.0231; in assay [15], -0.0585. Besides, the Bliss excess was -0.0182 in the assay with T47D (Breast Carcinoma) and -0.0601 in assay [16].
In the case of `COc1nnc2ccc(N3CCC(c4ccc(OCCN5CCN(C)C(=O)[C@H]5C)cc4)CC3)nn12` [AZD5153] + C[C@@H]1COCCN1C2=NC(=NC(=C2)C3(CC3)[S@](=N)(=O)C)C4=C5C=CNC5=NC=C4 [AZD6738] (first compound max 1 µM, 7x7, partner max 10 µM), the Bliss excess in assay [1] was 0.0525; in [2], 0.0531; with KALS-1 (Glioblastoma), -0.0314; in assay [3] it was 0.0233; in [4], -0.0009; in assay [5], -0.0166. Moreover, the Bliss excess in [6] is -0.0012; in assay [7] it was 0.0515; in assay [8], -0.0211; in assay [9], 0.0105; in [10] it was -0.0283; in the assay on SK-N-SH (Neuroblastoma) it was -0.0611. Moreover, the Bliss excess in assay [11] was -0.0046; in the assay on WM35 (Melanoma), 0.0621; in [12] it was -0.0255; in assay [13] it was 0.02; in [14], -0.0201; in [15], -0.0228. Besides, the Bliss excess with T47D (Breast Carcinoma) was 0.0796; in assay [16] it was -0.0692.

The values are drawn from the supplement of paper PMC11061612.
